Assays:
CRTH2 [1] = target: T1, CRTH2 (Homo sapiens, UniProt Q9Y5Y4); assay: Competition with 3H-PGD2 binding at the CRTH2 receptor (Examples 6-9); settings: control, cold PGD2, 8 trials
T1 construct: prolactin (prolac) signal peptide (N); expressed in transfected cells; host or cells: 300-19 cells (transformed murine pre-B lymphocytes)
T1 sequence (Q9Y5Y4 1-395): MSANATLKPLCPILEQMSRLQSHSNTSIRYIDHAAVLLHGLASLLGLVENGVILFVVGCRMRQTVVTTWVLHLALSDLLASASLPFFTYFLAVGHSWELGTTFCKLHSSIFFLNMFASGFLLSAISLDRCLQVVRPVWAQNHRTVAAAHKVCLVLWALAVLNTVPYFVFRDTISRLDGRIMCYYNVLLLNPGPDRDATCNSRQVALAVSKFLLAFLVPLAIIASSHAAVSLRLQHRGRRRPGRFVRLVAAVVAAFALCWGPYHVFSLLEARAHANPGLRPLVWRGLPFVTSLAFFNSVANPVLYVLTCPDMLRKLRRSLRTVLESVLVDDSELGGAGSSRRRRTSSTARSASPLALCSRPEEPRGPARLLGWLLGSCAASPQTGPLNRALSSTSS
Procedure: To directly determine the binding affinity of CRTH2 for PGD2, the following binding assay was used. Transfected and parental 300-19 cells were washed twice at room temperature with assay buffer, and resuspended at a concentration of 2×10^7 cells/ml. Using a 96-well U-bottom polypropylene plate (Costar, Corning Inc., Acton, Mass.), the assay was set up as follows: 50 μl of vehicle (0.3% DMSO in assay buffer, total wells) or of […] cold PGD2 (NS wells); 50 μl cells (2×10^7 cells/ml for 10^6 cells per well); 50 μl 6 nM [3H]-PGD2. The plate was allowed to incubate for 20 min at RT before centrifugation (2800 rpm, Sorval RT6000, 5 min, 4° C.). The plate was harvested (Packard Unifilter plate GF/C, previously soaked in 3% PEI for at least 1 hr) with cold assay buffer using a Packard Filtermate Cell Harvester (6×150 μl buffer wash per well). The filterplate was dried overnight. After the addition of 50 μl scintillation fluid (Packard Microscint 0), the plate was counted in a Packard Topcount scintillation counter (1 min per well). […] The solutions of labeled PGD2 and unlabeled “cold” PGD2 were prepared as follows: 10 μl of [^3H]-PGD2 (Amersham lot # TRK734 162 Ci/mmol, 0.1 Ci/ml in methanol: water: acetonitrile (3:2:1), 617 nM) per ml assay buffer was used to prepare a solution of [^3H]-PGD2 at a concentration of 6 nM (50 μl/well for final conc. of 2 nM); cold PGD2 (Biomol #PG-005, lot # P4653) was dissolved in DMSO for a stock of 10 mM (stored at −20° C.). The 10 mM stock was diluted 3:1000 to obtain a final concentration of […] (50 μl/well for final conc. of […]). Assay buffer: Hank's balanced saline supplemented with HEPES and sodium bicarbonate: 100 ml/L of 10× Hank's Balanced saline (with Ca^+2, Mg^+2); 10 ml/L of 1M HEPES; 4.7 ml/L of 7.5% Sodium Bicarbonate.
In the assay, the capacity of each D-ring compound to compete with binding of ^3H-PGD2 was measured at both the CRTH2 and DP receptors, and an IC50 value (in μM) was determined. […] The binding assay procedure of Example 1 was used. Preferably, the ratio of IC50 at CRTH2 to IC50 at DP is less than about twenty, and more preferably is […].

CRTH2 [2] = target: T1, CRTH2; assay: [3H]-PGD2 binding to 300-19 cells transfected with CRTH2
Procedure: In a preferred embodiment, a binding assay can be performed as follows: • (a) 300-19 cells (see below) that transiently express CRTH2 are pelleted, and washed twice at room temperature with assay buffer (Hank's balanced saline, including Ca^+2 and Mg^+2, and supplemented with HEPES and sodium bicarbonate). The cells are resuspended at a concentration of 2×10^7 cells/ml. […] After the addition of 50 μl scintillation fluid, the plate is counted in a scintillation counter (1 min per well). […]
To directly determine the binding affinity of CRTH2 for PGD2, the following binding assay was used. […] After the addition of 50 μl scintillation fluid (Packard Microscint 0), the plate was counted in a Packard Topcount scintillation counter (1 min per well). […]
The receptor concentration was calculated to be 79,554 sites/cell.

DP receptor = target: T2, DP receptor (Homo sapiens, UniProt Q13258); assay: Competition with 3H-PGD2 binding at the DP receptor (Examples 6-9); settings: control, cold PGD2, 7 trials
T2 sequence (Q13258 1-359): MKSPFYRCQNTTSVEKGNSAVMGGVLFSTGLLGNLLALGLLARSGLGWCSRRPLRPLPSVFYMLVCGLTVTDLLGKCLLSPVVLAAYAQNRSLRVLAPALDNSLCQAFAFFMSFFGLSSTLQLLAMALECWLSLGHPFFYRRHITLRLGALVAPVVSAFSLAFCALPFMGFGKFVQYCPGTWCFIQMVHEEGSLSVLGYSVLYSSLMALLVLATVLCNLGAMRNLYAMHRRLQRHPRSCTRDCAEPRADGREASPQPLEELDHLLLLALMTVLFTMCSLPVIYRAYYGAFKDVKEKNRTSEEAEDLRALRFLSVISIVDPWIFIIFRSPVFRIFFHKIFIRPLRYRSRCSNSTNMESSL
Procedure: To directly determine the binding affinity of CRTH2 for PGD2, the following binding assay was used. Transfected and parental 300-19 cells were washed twice at room temperature with assay buffer, and resuspended at a concentration of 2×10^7 cells/ml. Using a 96-well U-bottom polypropylene plate (Costar, Corning Inc., Acton, Mass.), the assay was set up as follows: 50 μl of vehicle (0.3% DMSO in assay buffer, total wells) or of […] cold PGD2 (NS wells); 50 μl cells (2×10^7 cells/ml for 10^6 cells per well); 50 μl 6 nM [3H]-PGD2. The plate was allowed to incubate for 20 min at RT before centrifugation (2800 rpm, Sorval RT6000, 5 min, 4° C.). The plate was harvested (Packard Unifilter plate GF/C, previously soaked in 3% PEI for at least 1 hr) with cold assay buffer using a Packard Filtermate Cell Harvester (6×150 μl buffer wash per well). The filterplate was dried overnight. After the addition of 50 μl scintillation fluid (Packard Microscint 0), the plate was counted in a Packard Topcount scintillation counter (1 min per well). […]
In the assay, the capacity of each D-ring compound to compete with binding of ^3H-PGD2 was measured at both the CRTH2 and DP receptors, and an IC50 value (in μM) was determined. […]

## CCCCC[C@H](O)/C=C/[C@H]1C(=O)C[C@H](O)[C@@H]1C/C=C\CCCC(=O)O [PGD2, prostaglandin D2]
CRTH2 [1]
  IC50: 10.7 nM
CRTH2 [2]; 300-19 CRTH2 transfectants, 2 nM [3H]-PGD2, room temperature
  IC50: 18 nM
CRTH2 [2]; CRTH2 transfectant, read-out: Kd of [3H]-PGD2 binding (Scatchard plot)
  Kd: 18.1 nM
DP receptor
  IC50: 23.4 nM
